Measurements published in the Kinase Knowledgebase extract (Sharma et al. 2016).
Values joined by “and” are separate entries in the source; they are usually repeats but may differ in a detail not shown here. Equal entries are not always repeated.

molecular target: MAPK14 (human) (UniProt Q16539); test: Assessment of MAPK14 Kinase Activity; conditions: not given
Sequence (Q16539 whole entry, looked up): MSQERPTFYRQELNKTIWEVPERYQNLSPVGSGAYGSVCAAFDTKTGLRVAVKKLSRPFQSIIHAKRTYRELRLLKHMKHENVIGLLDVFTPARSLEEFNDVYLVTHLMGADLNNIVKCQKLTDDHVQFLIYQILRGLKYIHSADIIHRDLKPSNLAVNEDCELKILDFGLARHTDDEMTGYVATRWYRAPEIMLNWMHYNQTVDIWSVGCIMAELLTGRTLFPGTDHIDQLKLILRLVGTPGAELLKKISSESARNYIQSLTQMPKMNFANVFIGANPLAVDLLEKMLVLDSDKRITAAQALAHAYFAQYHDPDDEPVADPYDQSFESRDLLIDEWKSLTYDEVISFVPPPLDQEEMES

| Compound | IC50 |
| --- | --- |
| CC(C)Nc1ncc2cc(Oc3ccc(F)cc3F)ncc2n1 | < 500 nM |
| CC(C)Nc1ncc2c(n1)N(CC(=O)O)C(=O)N(c1ccccc1Cl)C2 | < 10000 nM |
| CONC(=O)c1ccc(C)c(Nc2nnc(-c3ccccc3)[nH]2)c1 | < 50 nM |
| Cc1ncccc1-c1nnc2c(F)c(-c3cc(C(=O)NC4CC4)cc(F)c3C)c(F)cn12 | 81 nM |
| Cc1n[nH]c(C)c1-c1nncc2nc(Nc3ccc(F)cc3F)ccc12 | 1.6 nM |
| CSc1nc(-c2ccc(F)cc2)c(-c2ccnc(N(C)Cc3ccccc3)c2)[nH]1 | 870 nM |
| Cc1nc(-c2ccccc2)c(-c2ccncc2)o1 | 5160 nM |
| CC(C)Oc1n[nH]c2nc(Oc3ccc(F)cc3F)ncc12 | 165 nM |
| Cc1cccc(Nc2c(C(=O)N3CC[C@@H](O)C3)sc3c2ccc(=O)n3-c2c(F)cccc2F)n1 | 5 to 500 nM |
| O=C(Nc1ccc(Oc2ccnc(N3CCCC3)n2)c2ccccc12)c1cc(F)cc(N2CCCCC2)c1 | 41.9 nM |
| O=C(Nc1ccc(OCCN2CCOCC2)c2ccccc12)c1cccc(-c2cccc(F)c2)c1 | 1000 nM |
| Cc1nn(-c2ccccc2)c(O)c1C(=O)c1ccccc1 | > 100000 nM |
| Fc1ccc(-c2nc(SCc3ccccc3)[nH]c2-c2ccnc(Cl)c2)cc1 | 1900 nM |
| Cc1ccc(C(=O)NC2CC2)cc1Nc1nc(-c2ccccc2)cs1 | > 100 nM |
| CN(C)C(=O)[C@@H]1CCCN1c1nccc(Oc2ccc(NC(=O)c3cc(F)cc(N4CCCCC4)c3)c3ccccc23)n1 | 126 nM |
| O=C(c1sc2c(ccc(=O)n2-c2c(F)cccc2F)c1Nc1cccc(CO)n1)N1CC[C@@H](O)C1 | 5 to 500 nM |
| CN(CCO)c1nccc(Oc2ccc(NC(=O)c3cc(F)cc(N4CCOCC4)c3)c3ccccc23)n1 | 18.7 nM |
| O=C(Nc1ccc(OCCN2CCOCC2)c2ccccc12)c1cccc(C=Cc2ccccc2)c1 | > 10000 nM |

More lines, now with the values ahead:

| IC50 | Compound |
| --- | --- |
| > 100 nM | Cc1ccc(C(=O)NC2CC2)cc1Nc1nc(-c2ccc3[nH]ccc3c2)c(C(=O)NCc2ccccc2)s1 |
| 190 nM | Clc1ccc(-c2n[nH]c(N3CCc4ccccc4C3)c2-c2ccncc2)cc1 |
| < 50 nM | Cc1ccc(C(=O)NC2CC2)cc1Nc1ncc(C(=O)NCc2ccccc2)s1 |
| 5 to 500 nM | Cc1nc(Nc2c(C(=O)N3CCC[C@@H]3CO)sc3c2ccc(=O)n3-c2c(F)cccc2F)ccc1F |
| < 50 nM | CS(=O)(=O)N1CCC(Nc2ncc3cc(Oc4ccc(F)cc4F)ncc3n2)CC1 |
| 12 nM | CC[C@@H](NC(=O)c1cn2ncnc(Nc3cc(NC(=O)c4cccc(N5CCOCC5)c4)ccc3C)c2c1C)OC |
| < 10000 nM | CC(C)Nc1ncc2c(n1)N(CCO)C(=O)N(c1ccccc1Cl)C2 |

same assay, conditions: concentration not given here

| inhibition | Compound |
| --- | --- |
| -3% | CC1=C(C(=O)Nc2cc3cn[nH]c3cc2F)C(c2ccc(C(F)(F)F)cc2)CC(=O)N1 (configuration not stated) |
| -3% | C[C@@H](N)[C@H]1CC[C@H](C(=O)Nc2ccncc2)CC1 |
| -8% | O=S(=O)(c1cccc2cnccc12)N1CCCNCC1 |

molecular target: MAPK14 (human) (UniProt Q16539); test: Inhibition of MAPK14 Kinase Activity; conditions: not given

| IC50 | Compound |
| --- | --- |
| > 100000 nM | CCNC(=O)Nc1ccc2ncc(-c3ccc(O)c(OC)c3)nc2n1 |
| < 500 nM | CC(C)Nc1ncc2cc(Oc3ccc(F)cc3F)ncc2n1 |
| > 100000 nM | CCNC(=O)Nc1ccc2ncc(-c3cc(Cl)c(O)c(OC)c3)nc2n1 |
| < 50 nM | CS(=O)(=O)N1CCC(Nc2ncc3cc(Oc4ccc(F)cc4F)ncc3n2)CC1 |
| > 100000 nM | CCNC(=O)Nc1ccc2ncc(-c3cc(Cl)c(O)c(Cl)c3)nc2n1 |
| > 100000 nM | CCNC(=O)Nc1ccc2ncc(Nc3ccc(Cl)cc3)nc2n1 |

molecular target: CDK2 (human) (UniProt P24941); test: Enzyme Assay; conditions: concentration not given here

| inhibition | Compound |
| --- | --- |
| 18% | O=S(=O)(c1cccc2cnccc12)N1CCCNCC1 |

molecular target: MAPK14 (human) (UniProt Q16539); test: Enzyme Assay; conditions: not given

| IC50 | Compound |
| --- | --- |
| 56 nM | COc1cncc(CNc2cc(Oc3ccc(NC(=O)Nc4cc(C(C)(C)C)cc(P(C)(C)=O)c4OC)c4ccccc34)ccn2)c1 |
| 18 nM | Cc1cc(NC(=O)c2cccc(-n3ncc4cc(Nc5ccccc5F)ccc43)c2)ccc1N1CCOCC1 |

molecular target: PIK3CA (human) (UniProt P42336); test: Inhibition of PIK3CA Kinase Activity; conditions: not given
Sequence (P42336 whole entry, looked up): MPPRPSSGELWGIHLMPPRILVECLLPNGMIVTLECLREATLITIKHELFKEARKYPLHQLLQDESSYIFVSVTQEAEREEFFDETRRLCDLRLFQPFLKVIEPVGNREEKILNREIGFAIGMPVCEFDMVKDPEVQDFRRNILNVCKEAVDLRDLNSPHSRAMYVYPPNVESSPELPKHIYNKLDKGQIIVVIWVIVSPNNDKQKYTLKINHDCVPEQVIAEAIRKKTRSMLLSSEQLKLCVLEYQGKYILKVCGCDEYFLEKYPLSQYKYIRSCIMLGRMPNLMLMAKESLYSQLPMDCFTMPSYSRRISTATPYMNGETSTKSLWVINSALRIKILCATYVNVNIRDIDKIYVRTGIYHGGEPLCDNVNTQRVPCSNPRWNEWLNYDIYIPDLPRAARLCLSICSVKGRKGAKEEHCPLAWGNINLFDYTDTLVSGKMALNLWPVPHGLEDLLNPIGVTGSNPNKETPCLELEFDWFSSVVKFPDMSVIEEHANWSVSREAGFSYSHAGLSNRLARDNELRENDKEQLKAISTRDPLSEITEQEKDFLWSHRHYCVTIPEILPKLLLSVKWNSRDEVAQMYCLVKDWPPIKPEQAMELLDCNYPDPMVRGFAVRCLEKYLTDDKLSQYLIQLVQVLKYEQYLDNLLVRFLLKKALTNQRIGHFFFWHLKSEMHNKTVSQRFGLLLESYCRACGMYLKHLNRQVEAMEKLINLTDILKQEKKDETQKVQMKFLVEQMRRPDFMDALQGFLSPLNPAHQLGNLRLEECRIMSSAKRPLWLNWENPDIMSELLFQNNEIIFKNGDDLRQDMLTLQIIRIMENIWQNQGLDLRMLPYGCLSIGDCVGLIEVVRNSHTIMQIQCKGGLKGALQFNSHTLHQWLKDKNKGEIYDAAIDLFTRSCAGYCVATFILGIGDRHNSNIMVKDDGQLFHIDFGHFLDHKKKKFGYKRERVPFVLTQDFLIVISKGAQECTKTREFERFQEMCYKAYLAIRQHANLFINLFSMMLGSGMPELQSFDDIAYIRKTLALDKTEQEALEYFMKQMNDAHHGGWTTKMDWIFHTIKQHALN

| Compound | IC50 |
| --- | --- |
| COc1ccc2c(c1)c(C=C1Oc3cc(O)cc(O)c3C1=O)c(C)n2CCCN(C)C | 5 nM |
| CC(C)(C)CNc1ncccc1CNc1cccc(Oc2cc(=O)[nH]c3ccccc23)c1 | 10000 nM |
| COc1ncc2cc1NS(=O)(=O)c1cccc(c1)C(=O)NCc1cncc(c1)-c1ccnc3[nH]c-2cc13 | 100 to 1000 nM |
| CNC(=O)Nc1ccc(-c2nc(N3CC4CCC(C3)O4)c3cnn([C@H]4CC[C@H](OC)CC4)c3n2)cc1 | 1170 nM |
| Cc1ccc([N+](=O)[O-])cc1S(=O)(=O)n1ccc(-c2c(C)nc3ccc(Br)cn23)n1 | 3 nM |
| COc1ccc2c(c1)c(C=C1Oc3cc(O)cc(O)c3C1=O)c(C)n2CCCN1CCN(CCO)CC1 | 7 nM |
| CCNC(=O)Nc1ccc2ncc(-c3ccc(O)c(OC)c3)nc2n1 | 2800 nM and 2200 nM |
| COC[C@H]1OC(=O)c2coc3c2[C@@]1(C)C1=C(C3=O)[C@@H]2CC[C@H](C(=O)OCc3cc(=O)oc4cc(N(C)C)ccc34)[C@@]2(C)C[C@H]1OC(C)=O | 695 nM |
| CC(=O)N1CCC(n2ncc3c(N4CCOCC4)nc(-c4cccc(O)c4)nc32)CC1 | 69 nM |
| COC[C@H]1OC(=O)c2coc3c2[C@@]1(C)C1=C(C3=O)[C@@H]2CCC(=O)[C@@]2(C)C[C@H]1C(=O)OCc1cc(=O)oc2cc(N(C)C)ccc12 | 10.1 nM |
| C(#Cc1n[nH]c2ncccc12)c1ccccn1 | 9000 nM |
| COc1ncc2cc1NS(=O)(=O)c1ccc(F)c(c1)C(=O)NCc1cncc(c1)-c1ccnc3c1SC2=C3 | 15 nM |
| COc1ccccc1C1C2=C(CC(C)(C)CC2=O)Nc2c1c(C(C)(C)C)nn2-c1ccc(Cl)c(Cl)c1 (configuration not stated) | 7000 nM |
| CCNC(=O)Nc1ccc2ncc(-c3cc(Cl)c(O)c(OC)c3)nc2n1 | 458 nM |
| NC(=O)C1CCN(c2cccc(-c3nc(-c4cccc(O)c4)cc(N4CCOCC4)n3)c2)CC1 | 1000 nM |
| O=C1NCc2cncc(c2)-c2ncnc3c2SC(=C3)c2cncc(c2)NS(=O)(=O)c2cccc1c2 | 44 nM |
| CN(COC(=O)[C@@H]1CC(=O)c2coc3c2[C@@]1(C)c1ccc2c(c1C3=O)CCC2=O)c1ccc([N+](=O)[O-])c2nonc12 | 9.6 nM |

| Compound | IC50 |
| --- | --- |
| CC(C)(C)OC(=O)n1ccc2cc(CNc3cccc(Oc4cc(=O)[nH]c5ccccc45)c3)ccc21 | 11800 nM |
| C=CCN(/C=C1/C(=O)O[C@H](COC)[C@@]2(C)C1=C(O)C(=O)C1=C2[C@H](OC(C)=O)C[C@]2(C)C(=O)CCC12)CC=C (some centres not stated) | 0.5 nM |
| N[C@H]1CCC[C@@H](CC(=O)Nc2cccc(-c3nc(-c4cccc(CO)c4)cc(N4CCOCC4)n3)c2)C1 | 700 nM |
| COc1ncc2cc1NS(=O)(=O)c1cccc(c1)C(=O)NCC(=O)NCc1cncc(c1)-c1cnc3sc-2nn13 | 100 to 1000 nM |
| COc1ncc2cc1NS(=O)(=O)c1ccc(Cl)c(c1)C(=O)NCC1=CC=C(S1)c1ncnc3c1SC2=C3C | 0.1 nM |
| COc1ccc(-c2c[nH]c3ncc(-c4cncc(NS(=O)(=O)c5ccccc5)c4)cc23)cc1OC | 1600 nM |
| COc1ccc(-c2c[nH]c3ncc(-c4cncc(NS(=O)(=O)c5ccc(F)cc5F)c4)cc23)cc1OC | 3 nM |
| CNC(=O)Nc1ccc(-c2nc(N3CC4CCC(C3)O4)c3cnn([C@H]4CC[C@@H](OC)CC4)c3n2)cc1 | 705 nM |
| c1cc(-c2nc(N3CCOCC3)c3sccc3n2)c2cn[nH]c2c1 | 40 nM |
| CN(C)c1ccc2c(COC(=O)[C@@H]3CC(=O)c4coc5c4[C@@]3(C)c3ccc4c(c3C5=O)CCC4=O)cc(=O)oc2c1 | 1.9 nM |
| CCNC(=O)Nc1ccc2ncc(-c3cc(Cl)c(O)c(Cl)c3)nc2n1 | 3800 nM |
| C[C@]12C(=C(O)C(=O)c3c1ccc1c3CCC1=O)/C(=C/NCC(=O)O)C(=O)C[C@H]2OC(=O)CCC(=O)O | 44 nM |
| CC1(C)CC(=O)C2=C(C1)Nc1c(c(C3CCCCC3)nn1-c1cccc(F)c1)C2c1ccc(C(F)(F)F)cc1 (configuration not stated) | 8000 nM |
| O=c1cc(Oc2cccc(NCc3ccc4[nH]ccc4c3)c2)c2ccccc2[nH]1 | 3420 nM |
| O=C1C(=Cc2c[nH]c3ccc(Br)cc23)Oc2cc(O)cc(O)c21 | 422 nM |
| CCNC(=O)Nc1ccc2ncc(Nc3ccc(Cl)cc3)nc2n1 | 147 nM |

Further lines, results first:

| IC50 | Compound |
| --- | --- |
| 1.2 nM | Nc1ncc(-c2ccc3nccc(-c4ccncc4)c3c2)cc1S(=O)(=O)Nc1ccc(F)cc1F |
| 882 nM | CNC(=O)Nc1ccc(-c2nc(N3CC4CCC(C3)O4)c3cnn([C@H]4CC[C@H](O)CC4)c3n2)cc1 |
| 28 nM | CS(=O)(=O)Nc1cccc(-c2nn3c(-c4cnc(N)c(C(F)(F)F)c4)cnc3s2)c1 |
| 6 nM | CN[C@H](C)c1ccc(S(=O)(=O)Nc2cc(-c3ccc4nc(NC(C)=O)cn4n3)cnc2Cl)cc1 |
| 130 nM | N#Cc1cccc(-c2c[nH]c3ncc(-c4cnc(N)c(S(=O)(=O)N5CCOCC5)c4)cc23)c1 |
| 0.7 nM | COC[C@H]1OC(=O)c2coc3c2[C@@]1(C)C1=C(C3=O)[C@@H]2CCC(=O)[C@@]2(C)C[C@H]1C(=O)OCN(C)c1ccc([N+](=O)[O-])c2nonc12 |
| 20 nM | COc1ncc2cc1NS(=O)(=O)c1cccc(c1)C(=O)NCCN1CC=C(CC1)c1cnn3ccc-2nc13 |
| 1000 nM | NCc1cccc(C(=O)Nc2cccc(-c3nc(-c4cccc(CO)c4)cc(N4CCOCC4)n3)c2)c1 |
| 5620 nM | O=c1cc(Oc2cccc(NCc3cnccc3N3CCOCC3)c2)c2ccccc2[nH]1 |
| 8310 nM | CN1CCC(Nc2cccc(-c3cccc(Oc4cc(=O)[nH]c5ccccc45)c3)c2)CC1 |
| 1110 nM | c1ccc(CN2CCC(n3ncc4c(N5CCOCC5)nc(-c5cc6ccccc6[nH]5)nc43)CC2)cc1 |
| < 100 nM | COc1ncc(-c2nn3c(-c4ccnnc4)cnc3s2)cc1NS(=O)(=O)c1ccc(F)cc1F |
| 8 nM | CN[C@@H](C)c1ccc(S(=O)(=O)Nc2cc(-c3ccc4nc(NC(C)=O)cn4n3)cnc2Cl)cc1 |
| 225 nM | COC[C@H]1OC(=O)c2coc3c2[C@@]1(C)C1=C(C3=O)[C@@H]2CC[C@H](C(=O)OCN(C)c3ccc([N+](=O)[O-])c4nonc34)[C@@]2(C)C[C@H]1OC(C)=O |
| 227 nM | CNC(=O)Nc1ccc(-c2nc(N3CC4CCC(C3)O4)c3cnn([C@H]4CC[C@@H](O)CC4)c3n2)cc1 |
| 2 nM | Oc1cccc(-c2nc(N3CCOCC3)c3sccc3n2)c1 |
| 10000 nM | CC(C)(C)OC(=O)Nc1ccc(CNc2cccc(Oc3cc(=O)[nH]c4ccccc34)c2)cn1 |
| 12000 nM | CN(C)CC=CC(=O)Nc1cccc(-c2cccc(Oc3cc(=O)[nH]c4ccccc34)c2)c1 |
| 10000 nM | CN(C)CCCN1CCN(c2cccc(Oc3cc(=O)[nH]c4ccccc34)c2)CC1 |
| 7380 nM | O=C1Nc2ccccc2C(=C1)Oc3cccc(NCC4=CN(=CC=C4)[BH2-]C#N)c3 |
| 730 nM | CC(=O)c1c[nH]c2ncc(-c3cnc(N)c(S(=O)(=O)N4CCOCC4)c3)cc12 |
| 1.4 nM | O=C(Nc1ccc(C(=O)NCCN2CCCC2)cc1)Nc1ccc(-c2nc(O[C@H]3CCOC3)nc(N3CCOCC3)n2)cc1 |
